# Test results taken from US20130178469A1, “NOVEL ANTIVIRAL AGENTS” (SHANGHAI INSTITUTE OF ORGANIC CHEMISTRY (SIOC), priority 2010, published 2013).
# Assays:
# HIV-1 = assay: Luciferase Assay with single-round reporter virus (NLXLuc or HIV-Luc); format: cell-based; settings: Human immunodeficiency virus 1
# Text: Infectivity assays using reporter viruses derived from lentiviral vectors capable of a single round of infection were used to determine the activity (EC50) of compounds. The DNA used to generate viruses for infection was the full-length HIV-1 genome which had been envelope-deleted. In addition, a reporter gene (the firefly luciferase gene from Photinus pyralis) was cloned into the nefregion of the HIV backbone for ease of assay readout. […]. Culture supernatants containing VSV-G pseudotyped virions were harvested 64 h post transfection, clarified by centrifugation to remove cell debris, and frozen at −70° C. until use.
# 293FT cells were plated out at 12000 cells per well in CellView 96-well cell culture plates (Invitrogen) 16 h prior to compound addition. Compounds were preincubated with cells for 4 h at 37° C. prior to the addition of virus sufficient to generate approximately 10000 Luciferase light units (as measured by the Victor Wallace luminometer) upon assaying using the Bright-Glo™ reagent (Promega) according to the manufacturer's instructions at 48 h post infection.
# In the tables below, this assay is referred to as NLXLuc or HIV-Luc.
# HIV = assay: Inhibition of HIV Replication (NL4-3), extracellular p24 in HuT-78 cells; format: cell-based; settings: Human immunodeficiency virus 1, NL43, HuT78
# Method: HuT-78 cells are seeded into 96 well microtitre plates at 50,000 cells per […] per well in RF-10 containing 2 μg/mL polybrene (RF-10/2). Compounds are prepared to 4× final concentration in RF-10/2, and […] added to cells. Virus (40 μL in RF-10/2 containing 1600 pfu) is added to each well or […] RF-10/2 for negative controls and for assaying compound cytotoxicity. After 24 hrs, an additional 90 μL of media or media containing 1× compound is added to each well. At 4 days post infection, 100 μL of media is removed from each well and replaced with 100 μl of fresh media with or without compound. Forty eight hours later supernatants are harvested and levels of extracellular p24 determined. Supernatants are diluted 1 in 10,000 and p24 levels assayed using the Vironostika p24 assay kit. EC50 is calculated as the concentration required to inhibit HIV p24 production to 50% that of no drug controls.
# In the tables below, this assay type is referred to as NL4-3.
Compound,EC50 (HIV-1),EC50 (HIV)
"O=C(NCc1ccc(F)cc1)c1nc2c(N3CCNCC3=O)cc(N3CCOCC3)cn2c(=O)c1O [Example 10.3, N-(4-fluorobenzyl)-3-hydroxy-7-morpholino-4-oxo-9-(2-oxopiperazin-1-yl)-4H-pyrido[1,2-a]pyrimidine-2-carboxamide]",100 to 1000 nM,–
"CN(C)c1cc(N2CCCOC2=O)c2nc(C(=O)NCc3ccc(F)cc3)c(O)c(=O)n2c1 [Example 8.3, 7-(dimethylamino)-N-(4-fluorobenzyl)-3-hydroxy-4-oxo-9-(2-oxo-1,3-oxazinan-3-yl)-4H-pyrido[1,2-a]pyrimidine-2-carboxamide]",20 to 100 nM,–
"CN1CCN(c2cc(N3CCOCC3)cn3c(=O)c(O)c(C(=O)NCc4ccc(F)cc4)nc23)C(=O)C1 [Example 16.4, 3-Hydroxy-9-(4-methyl-2-oxo-piperazin-1-yl)-7-morpholin-4-yl-4-oxo-4H-pyrido[1,2-a]pyrimidine-2-carboxylic acid 4-fluoro-benzylamide]",20 to 100 nM,–
"CN1CCN(c2cc(N3CCCC3=O)c3nc(C(=O)NCc4ccc(F)cc4)c(O)c(=O)n3c2)CC1 [Example 2.4, 3-Hydroxy-7-(4-methyl-piperazin-1-yl)-4-oxo-9-(2-oxo-pyrrolidin-1-yl)-4H-pyrido[1,2-a]pyrimidine-2-carboxylic acid 4-fluoro-benzylamide]",100 to 1000 nM,–
"CC(C)N1CCN(c2cc(N3CCN(C)C3=O)c3nc(C(=O)NCc4ccc(F)cc4)c(O)c(=O)n3c2)CC1 [Example 32.4, 3-Hydroxy-7-(4-isopropyl-piperazin-1-yl)-9-(3-methyl-2-oxo-imidazolidin-1-yl)-4-oxo-4H-pyrido[1,2-a]pyrimidine-2-carboxylic acid 4-fluoro-benzylamide]",10 to 20 nM,–
"CC(C)N1CCN(c2cc(N(C)S(C)(=O)=O)c3nc(C(=O)NCc4ccc(F)cc4)c(O)c(=O)n3c2)CC1 [Example 6.3, Trifluoro-acetate4-[2-(4-fluoro-benzylcarbamoyl)-3-hydroxy-9-(methanesulfonyl-methyl-amino)-4-oxo-4H-pyrido[1,2-a]pyrimidin-7-yl]-1-isopropyl-piperazin-1-ium]",10 to 20 nM,–
"O=C(NCc1ccc(F)cc1)c1nc2c(N3CCNCC3=O)cc(N3CCNCC3)cn2c(=O)c1O [Example 15.3, 3-Hydroxy-4-oxo-9-(2-oxo-piperazin-1-yl)-7-piperazin-1-yl-4H-pyrido[1,2-a]pyrimidine-2-carboxylic acid 4-fluoro-benzylamide]",100 to 1000 nM,–
"CN1CCN(c2cc(N3CCCCC3=O)c3nc(C(=O)NCc4ccc(F)cc4)c(O)c(=O)n3c2)CC1 [Example 18.4, 3-Hydroxy-7-(4-methyl-piperazin-1-yl)-4-oxo-9-(2-oxo-piperidin-1-yl)-4H-pyrido[1,2-a]pyrimidine-2-carboxylic acid 4-fluoro-benzylamide]",20 to 100 nM,–
"Cc1ccc2nc(C(=O)NCc3ccc(Cl)c(Cl)c3)c(O)c(=O)n2c1 [drawing 189, reference compound]",–,100 to 1000 nM
"CN(C)c1cc(N2CCNCC2=O)c2nc(C(=O)NCc3ccc(F)cc3)c(O)c(=O)n2c1 [Example 9.3, 7-(dimethylamino)-N-(4-fluorobenzyl)-3-hydroxy-4-oxo-9-(2-oxopiperazin-1-yl)-4H-pyrido[1,2-a]pyrimidine-2-carboxamide]",100 to 1000 nM,–
"O=C(NCc1ccc(F)cc1)c1nc2c(N3CCOCC3)cc(N3CCOCC3)cn2c(=O)c1O [Example 21.5, N-(4-fluorobenzyl)-3-hydroxy-7,9-dimorpholino-4-oxo-4H-pyrido[1,2-a]pyrimidine-2-carboxamide]",100 to 1000 nM,–
"O=C(NCc1ccc(F)cc1)c1nc2c(N3CCCS3(=O)=O)cc(N3CCNCC3)cn2c(=O)c1O [Example 33, 3-Hydroxy-4-oxo-9-(1,3-propanesultam)-7-piperazin-1-yl-4H-pyrido[1,2-a]pyrimidine-2-carboxylic acid 4-fluoro-benzylamide]",100 to 1000 nM,–
"CC(C)N1CCN(c2cc(N3CCN(C)CC3)cn3c(=O)c(O)c(C(=O)NCc4ccc(F)cc4)nc23)C1=O [Example 17.4, 3-Hydroxy-9-(3-isopropyl-2-oxo-imidazolidin-1-yl)-7-(4-methyl-piperazin-1-yl)-4-oxo-4H-pyrido[1,2-a]pyrimidine-2-carboxylic acid 4-fluoro-benzylamide]",20 to 100 nM,–
"CN1CCN(c2cc(N(C)S(C)(=O)=O)c3nc(C(=O)NCc4ccc(F)cc4)c(O)c(=O)n3c2)CC1 [Example 5.4, 3-Hydroxy-9-(methanesulfonyl-methyl-amino)-7-(4-methyl-piperazin-1-yl)-4-oxo-4H-pyrido[1,2-a]pyrimidine-2-carboxylic acid 4-fluoro-benzylamide]",10 to 20 nM,–
"CN1CCN(c2cc(N3CCOCC3)cn3c(=O)c(O)c(C(=O)NCc4ccc(Cl)c(Cl)c4)nc23)C1=O [Example 30, N-(3,4-dichlorobenzyl)-3-hydroxy-9-(3-methyl-2-oxoimidazolidin-1-yl)-7-morpholino-4-oxo-4H-pyrido[1,2-a]pyrimidine-2-carboxamide]",20 to 100 nM,–
"CN1CCN(c2cc(N3CCNCC3=O)c3nc(C(=O)NCc4ccc(F)cc4)c(O)c(=O)n3c2)CC1 [Example 14.3, 3-Hydroxy-7-(4-methyl-piperazin-1-yl)-4-oxo-9-(2-oxo-piperazin-1-yl)-4H-pyrido[1,2-a]pyrimidine-2-carboxylic acid 4-fluoro-benzylamide]",100 to 1000 nM,–
"CC1COCCN1c1cc(N2CCNCC2=O)c2nc(C(=O)NCc3ccc(F)cc3)c(O)c(=O)n2c1 (stereo not shown) [Example 11.3, N-(4-fluorobenzyl)-3-hydroxy-7-(3-methylmorpholino)-4-oxo-9-(2-oxopiperazin-1-yl)-4H-pyrido[1,2-a]pyrimidine-2-carboxamide]",100 to 1000 nM,–
"CN(C)c1cc(N2CCOC2=O)c2nc(C(=O)NCc3ccc(F)cc3)c(O)c(=O)n2c1 [Example 7.3, 7-(dimethylamino)-N-(4-fluorobenzyl)-3-hydroxy-4-oxo-9-(2-oxooxazolidin-3-yl)-4H-pyrido[1,2-a]pyrimidine-2-carboxamide]",100 to 1000 nM,–
"O=C(NCc1ccc(F)cc1)c1nc2c(N3CCOC3=O)cc(N3CCNCC3)cn2c(=O)c1O [Example 19.4, 3-Hydroxy-4-oxo-9-(2-oxo-oxazolidin-3-yl)-7-piperazin-1-yl-4H-pyrido[1,2-a]pyrimidine-2-carboxylic acid 4-fluoro-benzylamide]",> 1000 nM,–
"CN1CCN(c2cc(N3CCOCC3)cn3c(=O)c(O)c(C(=O)NCc4ccc(F)cc4)nc23)C1=O [Example 29.2, N-(4-fluorobenzyl)-3-hydroxy-9-(3-methyl-2-oxoimidazolidin-1-yl)-7-morpholino-4-oxo-4H-pyrido[1,2-a]pyrimidine-2-carboxamide]",20 to 100 nM,–
"Cc1ccc2nc(C(=O)NCc3ccc(Cl)c(Cl)c3)c(O)c(=O)n2c1 [drawing 186, reference compound]",100 to 1000 nM,–
"CN1CCN(c2cc(N3CCOC3=O)c3nc(C(=O)NCc4ccc(F)cc4)c(O)c(=O)n3c2)CC1 [Example 20.4, 3-Hydroxy-7-(4-methyl-piperazin-1-yl)-4-oxo-9-(2-oxo-oxazolidin-3-yl)-4H-pyrido[1,2-a]pyrimidine-2-carboxylic acid 4-fluoro-benzylamide]",20 to 100 nM,–
"Cc1ccc2nc(C(=O)NCc3ccc(F)cc3)c(O)c(=O)n2c1 [drawing 177, reference compound]",> 1000 nM,–
"CN(CC1CC1)c1cc(N2CCNCC2=O)c2nc(C(=O)NCc3ccc(F)cc3)c(O)c(=O)n2c1 [Example 13.4, 7-(Cyclopropylmethyl-methyl-amino)-3-hydroxy-4-oxo-9-(2-oxo-piperazin-1-yl)-4H-pyrido[1,2-a]pyrimidine-2-carboxylic acid 4-fluoro-benzylamide]",20 to 100 nM,–
"CN1CCN(c2cc(N(C)C)cn3c(=O)c(O)c(C(=O)NCc4ccc(F)cc4)nc23)C1=O [Example 31.3, 7-Dimethylamino-3-hydroxy-9-(3-methyl-2-oxo-imidazolidin-1-yl)-4-oxo-4H-pyrido[1,2-a]pyrimidine-2-carboxylic acid 4-fluoro-benzylamide]",100 to 1000 nM,–
"O=C(NCc1ccc(F)cc1)c1nc2c(N3CCNCC3=O)cc(N3CCCCC3)cn2c(=O)c1O [Example 12.3, 3-Hydroxy-4-oxo-9-(2-oxo-piperazin-1-yl)-7-piperidin-1-yl-4H-pyrido[1,2-a]pyrimidine-2-carboxylic acid 4-fluoro-benzylamide]",20 to 100 nM,–
"O=C(NCc1ccc(F)cc1)c1nc2c(N3CCNCC3=O)cc(N3CCCC3)cn2c(=O)c1O [Example 4.4, 3-Hydroxy-4-oxo-9-(2-oxo-piperazin-1-yl)-7-pyrrolidin-1-yl-4H-pyrido[1,2-a]pyrimidine-2-carboxylic acid 4-fluoro-benzylamide]",100 to 1000 nM,–
"CN1CCN(c2cc(N3CCCOC3=O)c3nc(C(=O)NCc4ccc(F)cc4)c(O)c(=O)n3c2)CC1 [Example 1.4, N-(4-fluorobenzyl)-3-hydroxy-7-(4-methylpiperazin-1-yl)-4-oxo-9-(2-oxo-1,3-oxazinan-3-yl)-4H-pyrido[1,2-a]pyrimidine-2-carboxamide]",100 to 1000 nM,–
